Source: patent US11191803B2, “Laminin receptor peptides for therapy” (priority 2017, dated 2021)
Values joined by “and” are separate entries in the source; they are usually repeats but may differ in a detail not shown here. Identical values can stand only once.

Key:
[1] = tested on: ALS/MND patients; conditions: 24 week treatment; mixed patient population, median ALSFRS-R score 43; cited from earlier work
[2] = tested on: ALS/MND patients; conditions: over 24 weeks; mildly symptomatic group; placebo lost 7.5 points; cited from earlier work
[3] = tested on: ALS/MND patients; test: Second Phase III trial of Edaravone in a selected mildly symptomatic group; conditions: 24 weeks; mildly symptomatic subgroup
[4] = tested on: ALS/MND patients; conditions: cited from earlier work
[5] = tested on: isolated rat islet cultures; test: Glucagon secretion from collagenase-isolated rat pancreatic islet cultures (Quantikine ELISA); type: cell-based, Wistar rats; conditions: peptide 1 μg/ml; for Glucagon level, Medium plus Peptide A: RPMI 1640, 11 mmol/L glucose, 10% FCS
Procedure: Digestion of pancreatic tissue with collagenase to isolate islets causes similar disruption to the signalling molecules via disorganization of ECM components including laminin, fibronectin and collagen (Lee & Blaufox, J Nucl Med, 1985, 25:72-76) that results in similarly abnormally high glucagon secretion.
Islets from 2 Wistar rats (˜250 g) were isolated according to the method of Li et al. (Nature Protocols, 2009, 4:1649-1652) and suspended in 30 ml RPMI 1640 containing 11 mmol/L glucose and 10% FCS. One ml islet suspension was added to each well of 24-well plates. Peptide A dimer (SEQ ID NO: 3) was dissolved in HBSS at 100 μg/ml and added to wells at a final concentration of 1 μg/ml. After appropriate incubation times, samples were removed for glucagon measurements using Quantikine ELISA Immunoassay (R&D Systems).

[6] = tested on: ALS/MND patients; test: Clinical data: ALSFRS-R score in ALS/MND patients treated on a named patient basis for 6 months; type: in vivo, human
From the text: Clinical data were obtained from 19 ALS/MND patients treated on a named patient basis, for a period of 6 months, with the Peptide A dimer (SEQ ID NO: 3).
Average time from diagnosis to treatment was 17.8 months and the decline rate from diagnosis to start of treatment was established for each patient, which averaged at −1.24+/−0.7 decline per month on the ALSFRS-R score. Mean ALSFRS-R score at start of treatment was 32.94+/−8.13, median score 36 (min-max 15-44).

[7] = tested on: pancreatic α-cell line; conditions: culture of a pancreatic α-cell line; cited from earlier work

In the case of `CC1=NN(c2ccccc2)C(=O)C1` [Edaravone], the “Efficacy in initial Phase III trial” value [1] is given as “failed to show any efficacy”, the “Loss on the ALSFRS-R score” value [2] is given as 5 points and the “Slowing down of progression vs placebo” value [3] is given as 33.3%.

In the case of `Nc1nc2ccc(OC(F)(F)F)cc2s1` [Riluzole], the Functional advantage [4] is listed as “no functional advantage demonstrated”.

In the case of “CVPSVPIQQFPTEDWS CVPSVPIQQFPTEDWS [Peptide A dimer]”, the “% Reduction of glucagon secretion vs medium alone” value (from here on “% Reduction of glucagon secretion”) ([5]; 4 hours) is reported as 31.6%, the “Glucagon level, Medium plus Peptide A” value ([5]; 4 hours) is reported as 425.6 ± 14.8 pg/mL and the “% Reduction of glucagon secretion” value ([5]; 24 hours) is reported as 44.8%. For the same molecule, the “Glucagon level, Medium plus Peptide A” value ([5]; 24 hours) was 144.8 ± 8.8 pg/mL, the “% Reduction of glucagon secretion” value ([5]; 72 hours) was 55.2% and the “Glucagon level, Medium plus Peptide A” value ([5]; 72 hours) was 98.3 pg/mL and 98.3 ± 4.7 pg/mL. For the same molecule, the “Participants who stabilized and rose one point each on the ALSFRS-R scale, share of group” value ([6]; 2/19 patients) was 10.5%, the “% Slower Progression (actual vs predicted decline)” value ([6]; 19 ALS/MND patients) was 62% and 62.07% and the “ALSFRS-R Score, C Actual” value ([6]; 19 ALS/MND patients, actual score to time of analysis, baseline 32.94) was 29.53 +/− 8.26. For the same molecule, the “Actual Decline (A-C) in ALSFRS-R score” value ([6]; 19 ALS/MND patients, predicted decline A-B = 8.99) was “A-C = 3.41”, the “% Slower Progression (actual vs predicted decline)” value ([6]; subgroup 7 of 19 patients with faster predicted decline) was 76.6% and the “ALSFRS-R Score, C Actual” value ([6]; subgroup 7 of 19 patients with faster predicted decline, baseline 30.43) was 27.00 +/− 9.90. For the same molecule, the “Actual Decline (A-C) in ALSFRS-R score” value ([6]; subgroup 7 of 19 patients, predicted decline A-B = 14.7) was “A-C = 3.43”.

For methyl-β-cyclodextrin, the Glucagon secretion change [7] is listed as “doubling of the glucagon secretion” and the Reduction of cholesterol [7] is listed as “approximately 60%”.
